Assay results from US20240158446A1, “CYCLIC COMPOUND HAVING SELECTIVE INHIBITORY ACTION ON KRAS OVER HRAS AND NRAS” (CHUGAI SEIYAKU KABUSHIKI KAISHA, priority 2021, published 2024).

Key:
[1] = test system: human lung cancer strain NCI-H441;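 also: cell proliferation inhibition after four days measured by CellTiter-Glo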
[2] = target: GDP-bound KRAS wild-type protein (Homo sapiens, UniProt P01116); assay: Binding to KRAS by surface plasmon resonance (SPR), Single Cycle Kinetics; settings: SPR Single Cycle Kinetics, GDP-bound KRAS wild-type protein, 1:1 binding model; read-out: KRAS KD
[3] = target: GDP-bound HRAS wild-type protein (Homo sapiens, UniProt P01112); assay: Binding to HRAS by surface plasmon resonance (SPR), Single Cycle Kinetics; settings: SPR KD ratio HRAS/KRAS, class symbols
[4] = target: GDP-bound NRAS wild-type protein (Homo sapiens, UniProt P01111); assay: Binding to NRAS by surface plasmon resonance (SPR), Single Cycle Kinetics; settings: SPR KD ratio NRAS/KRAS, class symbols
GDP-bound NRAS wild-type protein, sequence (P01111 whole entry): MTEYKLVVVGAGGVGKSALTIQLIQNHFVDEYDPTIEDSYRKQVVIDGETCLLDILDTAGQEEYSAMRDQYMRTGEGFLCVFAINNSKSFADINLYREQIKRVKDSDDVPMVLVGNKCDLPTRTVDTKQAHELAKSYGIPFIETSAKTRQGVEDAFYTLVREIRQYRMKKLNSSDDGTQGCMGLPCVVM

GDP-bound KRAS wild-type protein, sequence (P01116 whole entry): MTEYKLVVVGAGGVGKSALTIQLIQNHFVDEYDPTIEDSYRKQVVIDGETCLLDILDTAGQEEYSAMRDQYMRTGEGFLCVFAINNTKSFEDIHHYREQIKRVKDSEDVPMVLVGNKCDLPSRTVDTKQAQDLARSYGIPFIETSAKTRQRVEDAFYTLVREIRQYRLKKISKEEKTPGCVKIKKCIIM
GDP-bound HRAS wild-type protein, sequence (P01112 whole entry): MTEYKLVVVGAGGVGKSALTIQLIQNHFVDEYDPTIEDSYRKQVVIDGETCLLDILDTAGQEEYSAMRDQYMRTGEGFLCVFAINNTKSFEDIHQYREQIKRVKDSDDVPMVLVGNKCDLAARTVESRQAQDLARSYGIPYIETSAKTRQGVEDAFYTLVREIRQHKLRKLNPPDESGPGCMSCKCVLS

Row | Compound | IC50 [1] | Kd [2] | HRAS/KRAS (ratio of KD value with respect to GDP-bound HRAS wild-type protein to KD value with respect to KRAS) [3] | NRAS/KRAS (ratio of KD value with respect to GDP-bound NRAS wild-type protein to KD value with respect to KRAS) [4]
1 | CCC(CC)[C@H]1C(=O)N(C)[C@H](C(=O)N(C)C)CC(=O)N(C)[C@@H](COC)C(=O)N[C@@H]([C@@H](C)CC)C(=O)N2CCC[C@H]2C(=O)N(C)[C@H]2C/C=C\CCN(C2=O)[C@@H](Cc2ccc(C(F)(F)F)cc2)C(=O)N(C)CC(=O)N[C@@H](CCc2ccc(Cl)c(Cl)c2)C(=O)N2C[C@H](OC3CCCC3)C[C@H]2C(=O)NC2(CC(C)(C)C2)C(=O)N1C [PP2651] | 147 nM | 1.9 nM | A (a compound having 10 or more and less than 20 is denoted as A) | AA (a compound having 20 or more is denoted as AA)
2 | CCC(CC)[C@H]1C(=O)N(C)[C@H](C(=O)N(C)C)CC(=O)N(C)[C@@H](COC)C(=O)N[C@@H]([C@@H](C)CC)C(=O)N2CCC[C@H]2C(=O)N(C)[C@H]2C/C=C\CCN(C2=O)[C@@H](Cc2ccc(C(F)F)cc2)C(=O)N(C)CC(=O)N[C@@H](CCc2ccc(Cl)c(Cl)c2)C(=O)N2C[C@H](OC3CCCC3)C[C@H]2C(=O)NC2(CC(C)(C)C2)C(=O)N1C [PP2652] | 82.7 nM | 1.5 nM | A (a compound having 10 or more and less than 20 is denoted as A) | AA (a compound having 20 or more is denoted as AA)
3 | CC[C@H](C)[C@@H]1NC(=O)[C@H](COC)N(C)C(=O)C[C@@H](C(=O)N(C)C)N(C)C(=O)[C@H](C2CCCCC2)N(C)C(=O)C2(CC(C)(C)C2)NC(=O)[C@@H]2C[C@@H](OC(C)C)CN2C(=O)[C@H](CCc2ccc(Cl)c(Cl)c2)NC(=O)CN(C)C(=O)[C@H](Cc2ccc(C(F)(F)F)cc2)N2CC/C=C\C[C@@H](C2=O)N(C)C(=O)CN(C)C1=O [PP2662] | 13.1 nM | 0.29 nM | A (a compound having 10 or more and less than 20 is denoted as A) | AA (a compound having 20 or more is denoted as AA)
4 | CC[C@H](C)[C@@H]1NC(=O)[C@H](COC)N(C)C(=O)C[C@@H](C(=O)N2CCCCC2)N(C)C(=O)[C@H](C2CCCC2)N(C)C(=O)C2(CC(C)(C)C2)NC(=O)[C@@H]2C[C@@H](OC3CCC3)CN2C(=O)[C@H](CCc2cc(F)c(C(F)(F)F)c(F)c2)NC(=O)CN(C)C(=O)[C@H](Cc2ccc(C(F)(F)F)cc2)N2CC/C=C\C[C@@H](C2=O)N(C)C(=O)CN(C)C1=O [PP2664] | 19.8 nM | 0.37 nM | B (a compound having 3 or more and less than 10 is denoted as B) | A (a compound having 10 or more and less than 20 is denoted as A)
5 | CC[C@H](C)[C@@H]1NC(=O)[C@H](COC)N(C)C(=O)C[C@@H](C(=O)N2CCCCC2)N(C)C(=O)[C@H](C2CCCC2)N(C)C(=O)C2(CC(C)(C)C2)NC(=O)[C@@H]2C[C@@H](OC3CCCC3)CN2C(=O)[C@H](CCc2cc(F)c(C(F)(F)F)c(F)c2)NC(=O)CN(C)C(=O)[C@H](Cc2ccc(C(F)(F)F)cc2)N2CC/C=C\C[C@@H](C2=O)N(C)C(=O)CN(C)C1=O [PP2665] | 23.4 nM | 0.56 nM | A (a compound having 10 or more and less than 20 is denoted as A) | A (a compound having 10 or more and less than 20 is denoted as A)
6 | CCO[C@@H]1C[C@H]2C(=O)NC3(CC(C)(C)C3)C(=O)N(C)[C@@H](C3CCCC3)C(=O)N(C)[C@H](C(=O)N3CCCCC3)CC(=O)N(C)[C@@H](COC)C(=O)N[C@@H]([C@@H](C)CC)C(=O)N(C3CC3)CC(=O)N(C)[C@H]3C/C=C\CCN(C3=O)[C@@H](Cc3ccc(C(F)(F)F)cc3)C(=O)N(C)CC(=O)N[C@@H](CCc3cc(F)c(C(F)(F)F)c(F)c3)C(=O)N2C1 [PP2666] | 28.6 nM | 0.72 nM | AA (a compound having 20 or more is denoted as AA) | AA (a compound having 20 or more is denoted as AA)
7 | CC[C@H](C)[C@@H]1NC(=O)[C@H](COC)N(C)C(=O)C[C@@H](C(=O)N2CCCCC2)N(C)C(=O)[C@H](C2CCCC2)N(C)C(=O)C2(CC(C)(C)C2)NC(=O)[C@@H]2C[C@@H](OC(C)C)CN2C(=O)[C@H](CCc2cc(F)c(C(F)(F)F)c(F)c2)NC(=O)CN(C)C(=O)[C@H](Cc2ccc(C(F)(F)F)cc2)N2CC/C=C\C[C@@H](C2=O)N(C)C(=O)CN(C2CC2)C1=O [PP2667] | 30.6 nM | 1.8 nM | A (a compound having 10 or more and less than 20 is denoted as A) | A (a compound having 10 or more and less than 20 is denoted as A)

The next lines start with results.

Row | IC50 [1] | Kd [2] | Compound | HRAS/KRAS (ratio of KD value with respect to GDP-bound HRAS wild-type protein to KD value with respect to KRAS) [3] | NRAS/KRAS (ratio of KD value with respect to GDP-bound NRAS wild-type protein to KD value with respect to KRAS) [4]
8 | 12.4 nM | 0.12 nM | CC[C@H](C)[C@@H]1NC(=O)[C@H](COC)N(C)C(=O)C[C@@H](C(=O)N(C)C)N(C)C(=O)[C@H](C2CCCCC2)N(C)C(=O)C2(CC(C)(C)C2)NC(=O)[C@@H]2C[C@@H](OC(C)C)CN2C(=O)[C@H](CCc2cc(F)c(C(F)(F)F)c(F)c2)NC(=O)CN(C)C(=O)[C@H](Cc2ccc(C(F)(F)F)cc2)N2CC/C=C\C[C@@H](C2=O)N(C)C(=O)CN(C)C1=O [PP2654] | A (a compound having 10 or more and less than 20 is denoted as A) | A (a compound having 10 or more and less than 20 is denoted as A)
9 | 17 nM | 0.1 nM | CC[C@H](C)[C@@H]1NC(=O)[C@H](COC)N(C)C(=O)C[C@@H](C(=O)N(C)C)N(C)C(=O)[C@H](C2CCCCC2)N(C)C(=O)C2(CC(C)(C)C2)NC(=O)[C@@H]2C[C@@H](OC3CCC3)CN2C(=O)[C@H](CCc2cc(F)c(C(F)(F)F)c(F)c2)NC(=O)CN(C)C(=O)[C@H](Cc2ccc(C(F)(F)F)cc2)N2CC/C=C\C[C@@H](C2=O)N(C)C(=O)CN(C)C1=O [PP2655] | A (a compound having 10 or more and less than 20 is denoted as A) | AA (a compound having 20 or more is denoted as AA)
10 | 22.5 nM | 0.31 nM | CC[C@H](C)[C@@H]1NC(=O)[C@H](COC)N(C)C(=O)C[C@@H](C(=O)N(C)C)N(C)C(=O)[C@H](C2CCCCC2)N(C)C(=O)C2(CC(C)(C)C2)NC(=O)[C@@H]2C[C@@H](OC3CCCC3)CN2C(=O)[C@H](CCc2cc(F)c(C(F)(F)F)c(F)c2)NC(=O)CN(C)C(=O)[C@H](Cc2ccc(C(F)(F)F)cc2)N2CC/C=C\C[C@@H](C2=O)N(C)C(=O)CN(C)C1=O [PP2656] | B (a compound having 3 or more and less than 10 is denoted as B) | A (a compound having 10 or more and less than 20 is denoted as A)
11 | 29.2 nM | 0.44 nM | CCO[C@@H]1C[C@H]2C(=O)NC3(CC(C)(C)C3)C(=O)N(C)[C@@H](C3CCCCC3)C(=O)N(C)[C@H](C(=O)N(C)C)CC(=O)N(C)[C@@H](COC)C(=O)N[C@@H]([C@@H](C)CC)C(=O)N(C3CC3)CC(=O)N(C)[C@H]3C/C=C\CCN(C3=O)[C@@H](Cc3ccc(C(F)(F)F)cc3)C(=O)N(C)CC(=O)N[C@@H](CCc3cc(F)c(C(F)(F)F)c(F)c3)C(=O)N2C1 [PP2657] | A (a compound having 10 or more and less than 20 is denoted as A) | A (a compound having 10 or more and less than 20 is denoted as A)
12 | 20.6 nM | 0.19 nM | CCO[C@@H]1C[C@H]2C(=O)NC3(CC(C)(C)C3)C(=O)N(C)[C@@H](C3CCCCC3)C(=O)N(C)[C@H](C(=O)N(C)C)CC(=O)N(C)[C@@H](COC)C(=O)N[C@@H]([C@@H](C)CC)C(=O)N(C)CC(=O)N(C)[C@H]3C/C=C\CCN(C3=O)[C@@H](Cc3ccc(C)cc3)C(=O)N(C)CC(=O)N[C@@H](CCc3cc(F)c(C(F)(F)F)c(F)c3)C(=O)N2C1 [PP2659] | A (a compound having 10 or more and less than 20 is denoted as A) | A (a compound having 10 or more and less than 20 is denoted as A)
13 | 14.3 nM | 0.18 nM | CC[C@H](C)[C@@H]1NC(=O)[C@H](COC)N(C)C(=O)C[C@@H](C(=O)N(C)C)N(C)C(=O)[C@H](C2CCCCC2)N(C)C(=O)C2(CC(C)(C)C2)NC(=O)[C@@H]2C[C@@H](OC(C)C)CN2C(=O)[C@H](CCc2cc(F)c(C(F)(F)F)c(F)c2)NC(=O)CN(C)C(=O)[C@H](Cc2ccc(C)cc2)N2CC/C=C\C[C@@H](C2=O)N(C)C(=O)CN(C)C1=O [PP2660] | A (a compound having 10 or more and less than 20 is denoted as A) | A (a compound having 10 or more and less than 20 is denoted as A)
14 | 13.4 nM | 0.27 nM | CCO[C@@H]1C[C@H]2C(=O)NC3(CC(C)(C)C3)C(=O)N(C)[C@@H](C3CCCCC3)C(=O)N(C)[C@H](C(=O)N(C)C)CC(=O)N(C)[C@@H](COC)C(=O)N[C@@H]([C@@H](C)CC)C(=O)N(C)CC(=O)N(C)[C@H]3C/C=C\CCN(C3=O)[C@@H](Cc3ccc(C(F)(F)F)cc3)C(=O)N(C)CC(=O)N[C@@H](CCc3ccc(Cl)c(Cl)c3)C(=O)N2C1 [PP2661] | A (a compound having 10 or more and less than 20 is denoted as A) | AA (a compound having 20 or more is denoted as AA)
